The test system of one data set is Chaetoceros gracilis. The data set can be described thus: Chaetoceros gracilis toxicity (phytoplankton growth) assay. It is filed as cell-based. The settings on record: for EC50: Chaetoceros neogracilis, 96 h. The procedure: For phytoplankton growth toxicity assays, the criterion for assay validity was that the cell count of the negative control after 96 h should be ≥2 × 10^5 cells/mL [40].
The centric marine diatom C. gracilis Schütt (strain CCMP1315) was grown photoautotrophically in autoclaved artificial seawater (sea salts; Sigma-Aldrich, St. Louis, MO, USA) (30‰) supplemented with F/2 (half-strength medium f as subsequently modified) in 100 mL medium at 20 °C and with ambient air bubbled in the media. By monitoring cell density, an adjusted culture of >1 × 10^6 cells/mL was used for the toxicity assays. At 96 h, a 0.9 mL aliquot of each treatment was sampled, mixed with 0.1 mL Lugol and cell density was counted. Experiments were assumed valid if cell count in the control after 96 h was […].
(§1) For EC50 or IC50 (the concentration that results in 50% stimulation or inhibition relative to the control) calculations in GraphPad Prism v.6, all data were fitted to the curve according to the following models for normalized response: Y = 100/(1 + 10^((X − LogIC50))) or Y = 100/(1 + 10^((LogEC50 − X))) depending on the trend of the curve.

In data set [1] the test system is RTL-W1 cell line. The data set can be described thus: RTL-W1 alamar blue/resazurin assay (mitochondria function). It is filed as cell-based, rainbow trout. Particulars: for EC50: Oncorhynchus mykiss, RTL-W1, Alamar blue/Resazurin assay, 48 h incubation; for effect on general metabolism and mitochondrial activity (in words): RTL-W1. The procedure:
(§2) The RTL-W1 cell line, a non-transformed rainbow trout liver cell line that has already been used in environmental toxicity assays, was established from the normal liver of an adult rainbow trout by proteolytic dissociation of liver fragments. RTL-W1 cells were cultured in 75 cm^2 culture flasks (Orange Scientific, Braine l’Alleud, Belgium) at 20 °C in Leibovitz’s (L-15, Sigma-Aldrich, St. Louis, MO, USA) medium supplemented with 5% fetal bovine serum (FBS) and 1% L-glutamine in CO2-free incubator. For the cytotoxicity assays of the selected secondary metabolites, cells were seeded at 3 × 10^4 cells/well density in a 96-well tissue culture plate (Orange Scientific Braine l’Alleud, Belgium) in 100 μL culture medium/well for 2 days before the assays. Three different cytotoxicity protocols were used: 1) The alamar blue/resazurin fluorometric/colorimetric cell viability assay to assess the metabolic capacity and mitochondrial function; 2) the crystal violet cell viability assay for indirect quantification of cell death; and 3) the neutral red cell proliferation assay for lysosomal activity. Two days after seeding the cells, cultures were incubated with various concentrations of selected secondary metabolites at 20 °C for 48 h before cell viability was assessed. […] For the alamar blue/resazurin fluorometric/colorimetric cell viability assay, 100 μL of 3 μg/100 μL Resazurin sodium salt (Sigma-Aldrich, St. Louis, MO, USA) in incubation medium was added on each well and incubated under sterile conditions at 20 °C for 4 h. For the crystal violet cell viability assay, after 48 h of incubation with each secondary metabolite, the culture medium was aspirated and cells were washed twice with sterile dd. H2O. The final wash was aspirated and 50 μL of 0.5% (w/v) crystal violet staining solution (20% methanol in dd. H2O) was added to each well followed by incubation for 20 min at room temperature on a bench rocker with a frequency of 20 oscillations per minute. The staining solution was then aspirated and the plate was washed four times with sterile dd. H2O and left to air-dry without its lid for 3 h at room temperature. Next, 200 μL of methanol was added to each well, and the plate was incubated with its lid on for 20 min at room temperature on a bench rocker with a frequency of 20 oscillations per minute. For the neutral red cell proliferation assay, after 48 h of incubation with each secondary metabolite, the culture medium was aspirated and cells were washed twice with phosphate-buffered saline (PBS, pH 7.4). Cells were then incubated with 100 μL of a 40 μg/mL neutral red staining solution in culture medium at 20 °C for 4 h followed by two washes with 150 μL of PBS. Then cells were incubated with 100 μL neutral red destain solution (50% ethanol, 49% dd. H2O, 1% glacial acetic acid) for 10 min on a bench rocker with a frequency of 80 oscillations per minute. Absorbance was read at 570 nm for alamar blue/resazurin and crystal violet and at 540 nm for neutral red using a Tecan infinite M200 Pro microplate reader. For each assay and each secondary metabolite, a minimum of four independent dose–response experiments with three replicates each were carried out. Calculations were carried out using detailed formulas (AbCam, Cambridge, UK, and results were analyzed with GraphPad Prism v.6.
as §1

Data set [2] relates to RTL-W1 cell line. The data set can be described thus: RTL-W1 crystal violet assay (cell viability). It is filed as cell-based, rainbow trout. The settings on record: for EC50: Oncorhynchus mykiss, RTL-W1, Crystal violet assay, 48 h incubation; for crystal violet assay EC50 (in words): RTL-W1. The procedure:
as §2, §1

In the case of `CC(C)[C@@H]1CC=C[C@H]2[C@H]3[C@](C)(CC[C@]12CBr)[C@@H](Br)CC[C@@]3(C)O` [Bromosphaerol, reference compound], in the data set on Chaetoceros gracilis, the “inhibition of C. gracilis growth (in words)” value was “very potent inhibitor of C. gracilis growth”. For the same molecule, the values for the 50% effective concentration (EC50) with Chaetoceros gracilis, with RTL-W1 cell line [1] and in the data set with RTL-W1 cell line [2] were 4.34 µM, above 1000 µM and 0.575 µM, respectively. In the data set with RTL-W1 cell line [2], the “crystal violet assay EC50 (in words)” value is on record as “sub-micromolar”.

For `CC1=C2CC[C@@](C)(Cl)[C@@H](Br)C[C@]2(C)[C@@H](C)[C@@H](Br)[C@@H]1O` [Compound 9, perforenol], the 50% effective concentration (EC50) in the data set on Chaetoceros gracilis is 49.8 µM; in the data set with RTL-W1 cell line [1], above 1000 µM; in the data set on RTL-W1 cell line [2] it was 16 µM. Further, the “effect on general metabolism and mitochondrial activity (in words)” value (from here on “effect”) with RTL-W1 cell line [1] is “none of the three tested metabolites had an effect”.

With `C=CC(C)(O)CC[C@@H]1C(=C)CC[C@@H](Br)[C@@]1(C)CCC1OC1(C)C` (stereo partly drawn) [Compound 18], the EC50 with Chaetoceros gracilis was determined as 10.7 µM. Besides, in the data set with RTL-W1 cell line [1], the EC50 is above 1000 µM; the “effect” value is on record as “none of the three tested metabolites had an effect”. In addition, in the data set on RTL-W1 cell line [2], the EC50 came to 0.456 µM and the “crystal violet assay EC50 (in words)” value is reported as “sub-micromolar”.

In the case of `C=C(C1CCC(C)(O)C(Br)C1)C1C(Br)C2C(CCC2(C)O)C1(C)C` (stereo not drawn) [Compound 19, neorogioldiol], the EC50 in the data set on Chaetoceros gracilis was 352 µM; with RTL-W1 cell line [1], above 1000 µM; with RTL-W1 cell line [2], 12.8 µM. In the data set on RTL-W1 cell line [1], the “effect” value is recorded as “none of the three tested metabolites had an effect”.

(Values after publication PMC6891695, “Evaluation of Antifouling Potential and Ecotoxicity of Secondary Metabolites Derived from Red Algae of the Genus Laurencia” (Marine Drugs, 2019).)
